For data set [1] the following is noted: clinical; cited from earlier work.
In the next data set the test system is gastric secretion. The settings on record: cited from earlier work.
Another data set relates to H2 receptor. The settings on record: cited from earlier work.
In data set [2] the target is T1, histamine H2-receptors (isolated, spontaneously beating guinea pig right atria) (Cavia porcellus, UniProt P47747). To be noted: cited from earlier work.
Data set [3] concerns the target T1, histamine H2-receptors (isolated, spontaneously beating guinea pig right atria). The data set is described as follows: Histamine H2-receptor antagonism, isolated guinea pig atria assay. Details: The spontaneously beating right atrium was dissected free from other tissues; from tissue; host or cells: isolated, spontaneously beating right atrium of male Hartley guinea pigs. It counts as cell-based. The settings on record: for Histamine ED50 (concentration of histamine which increased contractile rate 50% of maximum) after test compound: test compound 1 × 10^-5 M, 30 minute incubation. How it is done: Subsequent investigations by Hughes and Coret, Proc. Soc. […] Black et al., Agents and Actions, 3, 133 (1973) and Brimblecombe et al., Fed. […] The present comparative studies were carried out using a modification of the procedure reported by Reinhardt et al., Agents and Actions, 4, 217 (1974).
Male Hartley strain guinea pigs (350-450 gm.) were sacrificed by a blow on the head. The heart was excised and placed in a Petri dish of oxygenated (95% O2, 5% CO2) modified Krebs solution (g./liter: NaCl 6.6, KCl 0.35, MgSO4. 7 H2 O 0.295, KH2 PO4 0.162, CaCl2 0.238, NaHCO3 2.1 and dextrose 2.09). The spontaneously beating right atrium was dissected free from other tissues and a silk thread (4-0) attached to each end. The atrium was suspended in a 20 ml. muscle chamber containing oxygenated modified Krebs solution maintained at 32° C. Atrial contractions were recorded isometrically by means of a Grass FT 0.03 force displacement transducer and recordings of contractile force and rate were made with a Beckman RP Dynograph.
A resting tension of 1 g. was applied to the atrium and it was allowed to equilibrate for 1 hour.
Concentration-response curve displacement factors were calculated as follows: [formula] The factor obtained for BL-5641 was then expressed as a ratio of the factor obtained for cimetidine. [formula]

The subject of a further data set is peptic ulcer disease. The settings on record: Gray et al., Lancet 1977; cited from earlier work.
The conditions of data set [4]: in vivo, cited from earlier work.
The subject of data set [5] is gastric acid output. Kind of data set: Gastric antisecretory activity in the gastric fistula dog (histamine-induced). The settings on record: for Onset of inhibitory effect on gastric acid output: iv. It counts as in vivo, dog (beagle). How it is done: Thomas type [Thomas, J. E., Proc. Soc. exp. Biol. Med., 46, 260 (1941)] stainless steel cannulae are inserted into the stomachs of beagle dogs (10-12 kg.) just orad to the pyloric gland area near the greater curvature to provide a chronic gastric fistula. Animals are allowed to recover for at least two months before any testing is done. Dogs are fasted overnight (~18 hours) with water ad lib prior to each experiment. The dogs are placed in a sling and an eight inch inside needle catheter (C. R. Baird, Inc.) with a 2 inch 17 gauge needle is inserted into a leg vein fior purposes of drug administration. Gastric secretions are collected every 15 minutes by gravity drainage from the opened cannula. […] A modification of the procedure described by Grossman and Konturek, Gastroenterology, 66, 517 (1974) was followed. […] Each 15 minute sample of gastric juice is measured to the nearest 0.5 ml. and titratable acidity against 0.02N NaOH (endpoint pH 7.0) is measured with an Autoburet and pH meter (radiometer). The percent inhibition of acid output is calculated as described in the pylorus ligated rat procedure.

Data set [6] has as its system gastric acid output. The data set is described as follows: Gastric antisecretory activity in the two hour pylorus ligated (Shay) rat. It counts as in vivo, rat (male Long Evans). The settings on record: vs cimetidine. An excerpt:
The pyloric ligation procedure in the rat was designed by Shay et al., Gastroenterology, 5, 53 (1945) for the study of perforating gastric ulcers; however, as the method became known, it was also employed as a means of studying rat gastric secretion, Shay et al., Gastroenterology, 26, 906 (1954), Brodie, D. A., Am. J. Dig. […] A modification of this procedure is presently used to evaluate compounds for gastric antisecretory activity.
Male Long Evans rats, 280-300 gm., are used. The animals are placed in individual cages and fasted for 24 hours with free access to water. Under ether anesthesia, the stomach is reached through a midline incision, and a cotton-thread ligature is placed around the pylorus. After wound closure, ether administration is stopped and either BL-5641, cimetidine or vehicle are administered intraperitoneally in a volume of […]. BL-5641 and cimetidine are solubilized with one equivalent of HCl and brought to the proper volume with water. The animals are returned to their cages from which the water bottles have been removed and two hours later are sacrificed with ether. […] Titratable acid output is calculated in microequivalents by multiplying the volume in milliliters by the acid concentration in milliequivalents per liter. The percent inhibition of acid output is calculated as follows [formula]

Entries after “also recorded” stand apart in the source; their conditions may differ.

T1 sequence (P47747 whole entry): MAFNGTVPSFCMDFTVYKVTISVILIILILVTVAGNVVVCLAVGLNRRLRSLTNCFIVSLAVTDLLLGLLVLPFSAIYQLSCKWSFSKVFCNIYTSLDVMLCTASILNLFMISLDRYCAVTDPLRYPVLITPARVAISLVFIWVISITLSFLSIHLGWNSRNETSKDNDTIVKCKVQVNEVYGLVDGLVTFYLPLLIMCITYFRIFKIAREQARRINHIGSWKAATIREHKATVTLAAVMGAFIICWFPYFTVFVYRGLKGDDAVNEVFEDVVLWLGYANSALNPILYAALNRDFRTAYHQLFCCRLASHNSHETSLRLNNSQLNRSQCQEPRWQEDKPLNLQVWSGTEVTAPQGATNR

With `CNC(=S)NCCSCc1[nH]cnc1C` [Metiamide], in data set [1], the “Agranulocytosis” value is on record as “toxicity (agranulocytosis)”. Moreover, in the data set on gastric secretion (man), the “Oral activity” value is “orally active in man”. For the same compound, in the data set on H2 receptor, the “H2 antagonist potency/effectiveness” value is on record as “more potent than burimamide”.
As to `NCCc1c[nH]cn1` [Histamine], in [2], the “Effect on contractile rate of guinea pig right atria” value is on record as “concentration-related increases in the contractile rate”. The “Histamine concentration at which maximal response occurred” value in data set [3] (cumulative histamine addition) was determined as 30 µM.
In the case of `CNC(=NC#N)NCCSCc1[nH]cnc1C` [Cimetidine], the “Effectiveness in treatment of peptic ulcer disease” value with peptic ulcer disease is on record as “effective therapeutic agent in the treatment of peptic ulcer disease”. Moreover, in [1], the “Agranulocytosis” value is reported as “without producing agranulocytosis”. In addition, the “Histamine ED50 (concentration of histamine which increased contractile rate 50% of maximum) after test compound” value in [3] is 1.39 µg/mL. The “Half-life” value in data set [4] is “relatively short”. Besides, the “Onset of inhibitory effect on gastric acid output” value in the data set on gastric acid output [5] was “immediate inhibitory effect on gastric acid output”. Further, the “H2 antagonist potency/effectiveness” value with H2 receptor is on record as “as effective an H2 antagonist as metiamide”.
For the compound `C#CCN=C(NC#N)NCCSCc1[nH]cnc1C` [BL-5641, N-Cyano-N'-{2-[(4-methyl-5-imidazolyl)methylthio]ethyl}-N"-propargylguanidine], the “Potency for inhibition of gastric acid output” value in the data set with gastric acid output [6] is listed as “more potent than cimetidine; also recorded: at least as potent as cimetidine”. The “Potency as histamine H2-receptor antagonist” value in data set [3] (isolated guinea pig atria, vs cimetidine) is “more potent than cimetidine”. Besides, the “Histamine ED50 (concentration of histamine which increased contractile rate 50% of maximum) after test compound” value in data set [3] is 12.44 µg/mL. Moreover, the “Duration of activity” value with gastric acid output [5] (equal doses, vs cimetidine) is recorded as “longer duration of activity than cimetidine”. The “Degree and duration of inhibition” value with gastric acid output [5] (equimolar doses, vs cimetidine) was “consistently greater and of longer duration with BL-5641 than with cimetidine”. For the same compound, the “Onset of inhibitory effect on gastric acid output” value in the data set on gastric acid output [5] is “immediate inhibitory effect on gastric acid output”. Also, the “Potency as inhibitor of gastric secretion” value in the data set on gastric acid output [5] (vs cimetidine) is “more potent and/or longer acting than cimetidine; also recorded: more potent than cimetidine”.
`CNC(=S)NCCCCc1cnc[nH]1` [Burimamide]: in [4] (po), the “Oral absorption” value is given as “oral absorption is poor”. The “Inhibition of gastric secretion” value in the data set on gastric secretion (animals and man) was “inhibits gastric secretion in animals and man”. Moreover, the “Clinical effectiveness as H2 receptor antagonist” value in the data set on gastric secretion (clinical) was “first clinically effective H2 receptor antagonist”. In addition, in the data set with H2 receptor (Black et al., Nature 1972), the “Mode of antagonism at histamine H2-receptors” value was “competitive antagonist”.

(Values after patent publication USRE31588E, “Imidazolylmethylthioethyl alkynyl guanidines” (Bristol-Myers Company, priority 1981, dated 1984).)
